# Assay: Infusion of CAR-T cells followed by prednisone in a B-ALL patient: GVHD course and blood counts (case report)
# Format: in vivo, human
# Details: about 1 mg/kg starting day 14; on day 18 (or Day 48 since administration of CAR-T cells); dose then reduced to about 0.5 mg/kg
# Description: A person was diagnosed with B-cell acute lymphoblastic leukemia (B-ALL). […] Multiple salvage therapies were given. POMP maintenance therapy was subsequently started. The patient further developed graft-versus-host disease GVHD and was treated with prednisone and tacrolimus. Additional radiation therapy (XRT), immunotherapy, hyperCAVD and O-EPOCH were further administered to the patient. Further, lymphodepletion was induced in the patient with cyclophosphamide at 500 mg/m^2 and fludarabine at 30 mg/m^2 for 3 days. Following lymphodepletion, 10^6 CAR-T cells/kg were infused into the patient on day 0. […] About 1 mg/kg of prednisone was administered starting day 14. […] White blood cell count (WBC) was 2.7 and absolute lymphocyte count (ALC) was 200.
smiles,measurement,value
C[C@]12C=CC(=O)C=C1CC[C@@H]1[C@@H]2C(=O)C[C@@]2(C)[C@H]1CC[C@]2(O)C(=O)CO [prednisone],outcome of GVHD under prednisone,GVHD was resolved
